In brackets after ≈: the same amount, converted by molar mass. Activity calls are given as the source filed them. The rule behind the calls is not given here.
Assays:
Phytophthora capsici [1] = experiment: Inhibition of intact mycelial respiration of Phytophthora capsici at 10 ug/mL; format: functional
Phytophthora capsici [2] = experiment: Inhibition of intact mycelial respiration of Phytophthora capsici assessed as superpose rate of oxygen consumption at 10 ug/mL in presence of iodoacetic acid; format: functional; design: scale not given: the % may be the effect or the level left
Phytophthora capsici [3] = experiment: Inhibition of intact mycelial respiration of Phytophthora capsici at 10 ug/mL in presence of iodoacetic acid; format: functional
Phytophthora capsici [4] = experiment: Inhibition of intact mycelial respiration of Phytophthora capsici assessed as superpose rate of oxygen consumption at 10 ug/mL in presence of malonic acid; format: functional; design: scale not given: the % may be the effect or the level left
Phytophthora capsici [5] = experiment: Inhibition of intact mycelial respiration of Phytophthora capsici assessed as superpose rate of oxygen consumption at 10 ug/mL in presence of sodium phosphate; format: functional; design: scale not given: the % may be the effect or the level left
Phytophthora capsici [6] = experiment: Inhibition of intact mycelial respiration of Phytophthora capsici at 10 ug/mL in presence of malonic acid; format: functional
Phytophthora capsici [7] = experiment: Inhibition of intact mycelial respiration of Phytophthora capsici at 10 ug/mL in presence of sodium phosphate; format: functional
Phytophthora capsici [8] = experiment: Inhibition of intact mycelial respiration of Phytophthora capsici at 100 ug/mL in presence of iodoacetic acid; format: functional
Phytophthora capsici [9] = experiment: Inhibition of intact mycelial respiration of Phytophthora capsici at 100 ug/mL; format: functional
Phytophthora capsici [10] = experiment: Inhibition of intact mycelial respiration of Phytophthora capsici assessed as superpose rate of oxygen consumption at 100 ug/mL in presence of iodoacetic acid; format: functional; design: scale not given: the % may be the effect or the level left
Phytophthora capsici [11] = experiment: Inhibition of intact mycelial respiration of Phytophthora capsici assessed as superpose rate of oxygen consumption at 100 ug/mL in presence of sodium phosphate; format: functional; design: scale not given: the % may be the effect or the level left
Phytophthora capsici [12] = experiment: Inhibition of intact mycelial respiration of Phytophthora capsici at 100 ug/mL in presence of sodium phosphate; format: functional
Phytophthora capsici [13] = experiment: Inhibition of intact mycelial respiration of Phytophthora capsici at 100 ug/mL in presence of malonic acid; format: functional
Phytophthora capsici [14] = experiment: Inhibition of intact mycelial respiration of Phytophthora capsici assessed as superpose rate of oxygen consumption at 100 ug/mL in presence of malonic acid; format: functional; design: scale not given: the % may be the effect or the level left
Phytophthora capsici [15] = experiment: Inhibition of sporangia formation of Phytophthora capsici at 0.2 ug/mL treated 240 min after sporangia incubation followed by compound exposure for 60 min by light microscopy; format: functional
Phytophthora capsici [16] = experiment: Inhibition of zoospore release of Phytophthora capsici at 50 ug/mL; format: functional
Phytophthora capsici [17] = experiment: Inhibition of sporangia formation of Phytophthora capsici treated 240 min after sporangia incubation followed by compound exposure for 60 min by light microscopy; format: functional, organism-based
Phytophthora capsici [18] = experiment: Induction of morphological changes in Phytophthora capsici assessed as increase in mycelial ramifications at 10 ug/mL by scanning electron microscopy; format: functional, organism-based
Phytophthora capsici [19] = experiment: Induction of morphological changes in Phytophthora capsici assessed as increase in abnormal mycelial configurations at 10 ug/mL by scanning electron microscopy; format: functional, organism-based
Phytophthora capsici [20] = experiment: Inhibition of mycelial radial growth of Phytophthora capsici at 5 ug/mL incubated at 25 degC for 5 days in presence of 5 ug/mL ATP; format: functional; settings: 120 h
Phytophthora capsici [21] = experiment: Inhibition of zoospore release of Phytophthora capsici at 12 ug/mL; format: functional
Phytophthora capsici [22] = experiment: Induction of morphological changes in Phytophthora capsici assessed as increase in extensive cell wall proliferation at 5 ug/mL by transmission electron microscopy; format: functional, organism-based
Phytophthora capsici [23] = experiment: Inhibition of mycelial radial growth of Phytophthora capsici at 1 ug/mL incubated at 25 degC for 5 days; format: functional; settings: 120 h
Phytophthora capsici [24] = experiment: Induction of morphological changes in Phytophthora capsici assessed as induction of distortion of cell wall at 10 ug/mL by transmission electron microscopy; format: functional, organism-based
Phytophthora capsici [25] = experiment: Induction of morphological changes in Phytophthora capsici assessed as abnormal mycelial growth at 5 ug/mL by scanning electron microscopy; format: functional, organism-based
Phytophthora capsici [26] = experiment: Inhibition of mycelial radial growth of Phytophthora capsici at 10 ug/mL incubated at 25 degC for 5 days in absence of 5 ug/mL ATP; format: functional
Phytophthora capsici [27] = experiment: Inhibition of sporangia formation of Phytophthora capsici at 1 ug/mL treated 240 min after sporangia incubation followed by compound exposure for 60 min by light microscopy; format: functional
Phytophthora capsici [28] = experiment: Induction of morphological changes in Phytophthora capsici assessed as reduction in number of vesicles at 5 ug/mL by transmission electron microscopy; format: functional, organism-based
Phytophthora capsici [29] = experiment: Inhibition of cytospore germination of Phytophthora capsici at 0.5 ug/mL after 24 hr; format: functional
Phytophthora capsici [30] = experiment: Inhibition of zoospore release of Phytophthora capsici at 6 ug/mL; format: functional
Phytophthora capsici [31] = experiment: Inhibition of zoospore release of Phytophthora capsici at 25 ug/mL; format: functional
Phytophthora capsici [32] = experiment: Inhibition of mycelial radial growth of Phytophthora capsici at 10 ug/mL incubated at 25 degC for 5 days in presence of 5 ug/mL ATP; format: functional
Phytophthora capsici [33] = experiment: Inhibition of zoospore release of Phytophthora capsici; format: functional, organism-based
Phytophthora capsici [34] = experiment: Induction of morphological changes in Phytophthora capsici assessed as distortion of vacuoles and vesicles in dense bodies at 10 ug/mL by transmission electron microscopy; format: functional, organism-based
Phytophthora capsici [35] = experiment: Inhibition of cytospore germination of Phytophthora capsici at 0.1 ug/mL after 24 hr; format: functional
Phytophthora capsici [36] = experiment: Inhibition of mycelial radial growth of Phytophthora capsici at 2 ug/mL incubated at 25 degC for 5 days; format: functional; settings: 120 h
Phytophthora capsici [37] = experiment: Inhibition of mycelial radial growth of Phytophthora capsici at 0.6 ug/mL incubated at 25 degC for 5 days; format: functional; settings: 120 h
Phytophthora capsici [38] = experiment: Inhibition of mycelial radial growth of Phytophthora capsici incubated at 25 degC for 5 days; format: functional, organism-based; settings: 120 h
Phytophthora capsici [39] = experiment: Induction of morphological changes in Phytophthora capsici assessed as increase in dense bodies at 10 ug/mL by transmission electron microscopy; format: functional, organism-based
Phytophthora capsici [40] = experiment: Induction of morphological changes in Phytophthora capsici assessed as increase in mycelial colony density at 10 ug/mL by scanning electron microscopy; format: functional, organism-based
Phytophthora capsici [41] = experiment: Inhibition of sporangia formation of Phytophthora capsici at 0.1 ug/mL treated 240 min after sporangia incubation followed by compound exposure for 60 min by light microscopy; format: functional
Phytophthora capsici [42] = experiment: Inhibition of cytospore germination of Phytophthora capsici at 0.2 ug/mL after 24 hr; format: functional
Phytophthora capsici [43] = experiment: Inhibition of mycelial radial growth of Phytophthora capsici at 5 ug/mL incubated at 25 degC for 5 days in presence of 1 ug/mL ATP; format: functional
Phytophthora capsici [44] = experiment: Inhibition of cytospore germination of Phytophthora capsici at 1 ug/mL after 24 hr; format: functional
Phytophthora capsici [45] = experiment: Induction of morphological changes in Phytophthora capsici assessed as increase in mycelial colony density at 5 ug/mL by scanning electron microscopy; format: functional, organism-based
Phytophthora capsici [46] = experiment: Inhibition of cytospore germination of Phytophthora capsici at 2 ug/mL after 24 hr; format: functional
Phytophthora capsici [47] = experiment: Inhibition of mycelial radial growth of Phytophthora capsici at 10 ug/mL incubated at 25 degC for 5 days in presence of 1 ug/mL ATP; format: functional
Phytophthora capsici [48] = experiment: Inhibition of cytospore germination of Phytophthora capsici after 24 hr; format: functional, organism-based
Phytophthora capsici [49] = experiment: Inhibition of sporangia formation of Phytophthora capsici at 0.5 ug/mL treated 240 min after sporangia incubation followed by compound exposure for 60 min by light microscopy; format: functional
Phytophthora capsici [50] = experiment: Induction of morphological changes in Phytophthora capsici assessed as induction of multilayered cell wall development at 10 ug/mL by transmission electron microscopy; format: functional, organism-based
Phytophthora capsici [51] = experiment: Induction of morphological changes in Phytophthora capsici assessed as abnormal mycelial growth at 10 ug/mL by scanning electron microscopy; format: functional, organism-based
Phytophthora capsici [52] = experiment: Inhibition of mycelial radial growth of Phytophthora capsici at 5 ug/mL incubated at 25 degC for 5 days; format: functional; settings: 120 h
Phytophthora capsici [53] = experiment: Inhibition of sporangia formation of Phytophthora capsici at 2 ug/mL treated 240 min after sporangia incubation followed by compound exposure for 60 min by light microscopy; format: functional
Phytophthora capsici [54] = experiment: Inhibition of zoospore release of Phytophthora capsici at 100 ug/mL; format: functional

`CO/C=C(/C(=O)OC)c1ccccc1Oc1cc(Oc2ccccc2C#N)ncn1` [AZOXYSTROBIN] showed an inhibition at 10 µg/mL (Phytophthora capsici [1]) of 71.7%, an Activity (Phytophthora capsici [2]) of 53.27% and an inhibition at 10 µg/mL (Phytophthora capsici [3]) of 86.8%. For the same compound, the Activity (Phytophthora capsici [4]) was 9.02%, the Activity (Phytophthora capsici [5]) was 51.36% and the inhibition at 10 µg/mL (Phytophthora capsici [6]) was 74.2%. For the same compound, the inhibition at 10 µg/mL (Phytophthora capsici [7]) was 86.2%.

With `COc1ccc(C(=CC(=O)N2CCOCC2)c2ccc(Cl)cc2)cc1OC` [DIMETHOMORPH] the inhibition at 100 µg/mL (Phytophthora capsici [8]) was 61.1%, the inhibition at 100 µg/mL (Phytophthora capsici [9]) was 19.4% and the Activity (Phytophthora capsici [10]) was 51.62%. For the same compound, the Activity (Phytophthora capsici [11]) was 44.06%, the inhibition at 100 µg/mL (Phytophthora capsici [12]) was 55% and the inhibition at 100 µg/mL (Phytophthora capsici [13]) was 59.6%. For the same compound, the Activity (Phytophthora capsici [14]) was 49.91%.

Work on `CC(C)(C)c1ccc(/C(=C/C(=O)N2CCOCC2)c2ccnc(Cl)c2)cc1` [PYRIMORPH] yielded an inhibition at 0.2 µg/mL (Phytophthora capsici [15]) of 57%, an inhibition at 50 µg/mL (Phytophthora capsici [16]) of 94% and an inhibition at 100 µg/mL (Phytophthora capsici [8]) of 60.2%. For the same compound, the EC50 (Phytophthora capsici [17]) was 0.17 µg/mL (≈ 0.442 µM), the EC90 (Phytophthora capsici [17]) was 3.21 µg/mL (≈ 8.34 µM) and the Activity (Phytophthora capsici [18]) was “Active”. The Activity (Phytophthora capsici [19]) was “Active”, the inhibition at 100 µg/mL (Phytophthora capsici [9]) was 41% and the inhibition at 5 µg/mL (Phytophthora capsici [20]) was 72%. The Activity (Phytophthora capsici [10]) was 32.61%, the inhibition at 12 µg/mL (Phytophthora capsici [21]) was 65% and the Activity (Phytophthora capsici [11]) was 5.22%. The Activity (Phytophthora capsici [22]) was “Active”, the inhibition at 1 µg/mL (Phytophthora capsici [23]) was 28% and the Activity (Phytophthora capsici [24]) was “Active”. For the same compound, the Activity (Phytophthora capsici [25]) was “Active”, the “inhibition (INH)” value (Phytophthora capsici [26]) was 98% and the inhibition at 1 µg/mL (Phytophthora capsici [27]) was 75%. For the same compound, the Activity (Phytophthora capsici [28]) was “Active”, the inhibition at 0.5 µg/mL (Phytophthora capsici [29]) was 68% and the inhibition at 6 µg/mL (Phytophthora capsici [30]) was 58%. The inhibition at 25 µg/mL (Phytophthora capsici [31]) was 80%, the “inhibition (INH)” value (Phytophthora capsici [32]) was 77% and the inhibition at 100 µg/mL (Phytophthora capsici [12]) was 44%. For the same compound, the EC50 (Phytophthora capsici [33]) was 4.92 µg/mL (≈ 12.8 µM), the EC90 (Phytophthora capsici [33]) was 45.7 µg/mL (≈ 119 µM) and the Activity (Phytophthora capsici [34]) was “Active”. The inhibition at 0.1 µg/mL (Phytophthora capsici [35]) was 54%, the inhibition at 2 µg/mL (Phytophthora capsici [36]) was 57% and the inhibition at 0.6 µg/mL (Phytophthora capsici [37]) was 9%. The EC50 (Phytophthora capsici [38]) was 1.84 µg/mL (≈ 4.78 µM), the EC90 (Phytophthora capsici [38]) was 5.71 µg/mL (≈ 14.8 µM) and the Activity (Phytophthora capsici [39]) was “Active”. The Activity (Phytophthora capsici [40]) was “Active”, the inhibition at 0.1 µg/mL (Phytophthora capsici [41]) was 52% and the inhibition at 0.2 µg/mL (Phytophthora capsici [42]) was 56%. The “inhibition (INH)” value (Phytophthora capsici [43]) was 75%, the inhibition at 1 µg/mL (Phytophthora capsici [44]) was 71% and the Activity (Phytophthora capsici [45]) was “Active”. For the same compound, the inhibition at 2 µg/mL (Phytophthora capsici [46]) was 84%, the “inhibition (INH)” value (Phytophthora capsici [47]) was 78.1% and the inhibition at 100 µg/mL (Phytophthora capsici [13]) was 51.8%. For the same compound, the Activity (Phytophthora capsici [14]) was 18.31%, the EC50 (Phytophthora capsici [48]) was 0.09 µg/mL (≈ 0.234 µM) and the EC90 (Phytophthora capsici [48]) was 8.16 µg/mL (≈ 21.2 µM). For the same compound, the inhibition at 0.5 µg/mL (Phytophthora capsici [49]) was 66%, the Activity (Phytophthora capsici [50]) was “Active” and the Activity (Phytophthora capsici [51]) was “Active”. The inhibition at 5 µg/mL (Phytophthora capsici [52]) was 81%, the inhibition at 2 µg/mL (Phytophthora capsici [53]) was 85% and the inhibition at 100 µg/mL (Phytophthora capsici [54]) was 95%.

— ChEMBL document CHEMBL3044598, “Study of inhibitory effects and action mechanism of the novel fungicide pyrimorph against Phytophthora capsici” (J Agric Food Chem, 2010)
